US12421252B2, “Spiro (isobenzofuranazetidine) compounds for the treatment of autoimmune disease” (Hoffmann-La Roche Inc., priority 2020, dated 2025)

Each compound was assayed against T1, human TLR8 (Homo sapiens, UniProt Q9NR97) (assay: HEK293-Blue-hTLR-8 cells assay). Settings: HEK293-Blue-hTLR8 cells, R848 stimulation, 20 hrs, SEAP reporter; read-out: HEK/hTLR8 IC50.
T1 sequence (Q9NR97 27-1041): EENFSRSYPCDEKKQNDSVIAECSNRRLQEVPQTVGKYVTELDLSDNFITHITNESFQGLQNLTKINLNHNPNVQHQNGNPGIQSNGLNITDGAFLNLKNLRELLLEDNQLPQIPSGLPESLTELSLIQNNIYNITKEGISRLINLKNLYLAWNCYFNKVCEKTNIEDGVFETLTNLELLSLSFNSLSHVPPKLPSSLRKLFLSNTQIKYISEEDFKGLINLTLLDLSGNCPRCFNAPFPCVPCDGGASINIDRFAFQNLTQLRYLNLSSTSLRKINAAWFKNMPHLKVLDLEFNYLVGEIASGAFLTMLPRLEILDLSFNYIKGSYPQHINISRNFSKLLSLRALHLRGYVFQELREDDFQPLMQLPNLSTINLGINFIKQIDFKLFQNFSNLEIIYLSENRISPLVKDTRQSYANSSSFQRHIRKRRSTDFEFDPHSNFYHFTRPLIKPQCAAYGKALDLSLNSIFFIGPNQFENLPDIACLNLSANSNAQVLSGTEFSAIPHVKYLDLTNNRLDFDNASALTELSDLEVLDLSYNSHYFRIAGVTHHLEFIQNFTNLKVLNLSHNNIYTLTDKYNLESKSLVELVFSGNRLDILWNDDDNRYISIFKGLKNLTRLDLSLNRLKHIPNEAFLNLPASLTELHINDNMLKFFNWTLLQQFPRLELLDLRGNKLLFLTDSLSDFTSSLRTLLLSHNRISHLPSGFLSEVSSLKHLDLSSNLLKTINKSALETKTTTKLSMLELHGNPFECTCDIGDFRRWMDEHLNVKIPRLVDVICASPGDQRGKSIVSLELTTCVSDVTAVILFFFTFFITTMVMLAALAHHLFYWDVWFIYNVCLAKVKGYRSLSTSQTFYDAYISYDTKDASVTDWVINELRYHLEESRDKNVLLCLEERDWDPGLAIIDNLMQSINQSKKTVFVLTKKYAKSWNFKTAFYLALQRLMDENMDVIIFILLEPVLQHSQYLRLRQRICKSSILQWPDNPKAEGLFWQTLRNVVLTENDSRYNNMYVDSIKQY
Assay type: cell-based
Source text: HEK293-Blue-hTLR-8 cells assay:
A stable HEK293-Blue-hTLR-8 cell line was purchased from InvivoGen (Cat. #: hkb-htlr8, San Diego, California, USA). These cells were originally designed for studying the stimulation of human TLR8 by monitoring the activation of NF-κB. A SEAP (secreted embryonic alkaline phosphatase) reporter gene was placed under the control of the IFN-β minimal promoter fused to five NF-κB and AP-1-binding sites. The SEAP was induced by activating NF-κB and AP-1 via stimulating HEK-Blue hTLR8 cells with TLR8 ligands. Therefore the reporter expression was declined by TLR8 antagonist under the stimulation of a ligand, such as R848, for incubation of 20 hrs. The cell culture supernatant SEAP reporter activity was determined using QUANTI-Blue™kit (Cat. #: rep-qb1, Invivogen, San Diego, Ca, USA) at a wavelength of 640 nm, a detection medium that turns purple or blue in the presence of alkaline phosphatase.
HEK293-Blue-hTLR8 cells were incubated at a density of 250,000˜450,000 cells/mL in a volume of 170 μL in a 96-well plate in Dulbecco's Modified Eagle's medium (DMEM) containing 4.5 g/L glucose, 50 U/mL penicillin, […], […], 2 mM L-glutamine, 10% (v/v) heat-inactivated fetal bovine serum with addition of 20 μL test compound in a serial dilution in the presence of final DMSO at 1% and 10 μL of 60 uM R848 in above DMEM, perform incubation under 37° C. in a CO2 incubator for 20 hrs. Then 20 μL of the supernatant from each well was incubated with 180 μL Quanti-blue substrate solution at 37° C. for 2 hrs and the absorbance was read at 620-655 nm using a spectrophotometer. The signaling pathway that TLR8 activation leads to downstream NF-κB activation has been widely accepted, and therefore similar reporter assay was modified for evaluating TLR8 antagonist.

| Structure (SMILES) | IC50 [nM] |
| --- | --- |
| C[C@@H]1CN(c2ccc(C#N)n3ncc(F)c23)C[C@H](CN2CC3(C2)OCc2cc(N4CC(C)(N)C4)cnc23)O1 [Example 33, 4-[(2S,6R)-2-[[3-(3-amino-3-methyl-azetidin-1-yl)spiro[5H-furo[3,4-b]pyridine-7,3′-azetidine]-1′-yl]methyl]-6-methyl-morpholin-4-yl]-3-fluoro-pyrazolo[1,5-a]pyridine-7-carbonitrile] | 24 |
| [2H]c1ccc2c(N3C[C@H](CN4CC5(C4)OCc4cc(N6C[C@H]7NCCO[C@@H]7C6)ncc45)O[C@H](C)C3)ccc(C#N)c2n1 [Example 28, 5-[(2S,6R)-2-[[6-[(4aR,7aR)-3,4,4a,5,7,7a-hexahydro-2H-pyrrolo[3,4-b][1,4]oxazin-6-yl]spiro[1H-furo[3,4-c]pyridine-3,3′-azetidine]-1′-yl]methyl]-6-methyl-morpholin-4-yl]-2-deuterio-quinoline-8-carbonitrile] | 25 |
| C[C@@H]1CN(c2ccc(C#N)n3nccc23)C[C@H](CN2CC3(C2)OCc2cc(N4CC(C)(N)C4)ncc23)O1 [Example 25, 4-[(2S,6R)-2-[[6-(3-amino-3-methyl-azetidin-1-yl)spiro[1H-furo[3,4-c]pyridine-3,3′-azetidine]-1′-yl]methyl]-6-methyl-morpholin-4-yl]pyrazolo[1,5-a]pyridine-7-carbonitrile] | 120 |
| [2H]c1ccc2c(N3C[C@H](CN4CC5(C4)OCc4cc(N6C[C@H]7NCCO[C@@H]7C6)ccc45)O[C@H](C)C3)ccc(C#N)c2n1 [Example 17, 5-[(2S,6R)-2-[[6-[(4aR,7aR)-3,4,4a,5,7,7a-hexahydro-2H-pyrrolo[3,4-b][1,4]oxazin-6-yl]spiro[1H-isobenzofuran-3,3′-azetidine]-1′-yl]methyl]-6-methyl-morpholin-4-yl]-2-deuterio-quinoline-8-carbonitrile] | 9 |
| C[C@@H]1CN(c2ccc(C#N)n3ncc(F)c23)C[C@H](CN2CC3(C2)OCc2cc(N[C@H]4CNC[C@H]4F)ccc23)O1 [Example 3, 3-fluoro-4-[(2S,6R)-2-[[6-[[(3S,4R)-4-fluoropyrrolidin-3-yl]amino]spiro[1H-isobenzofuran-3,3′-azetidine]-1′-yl]methyl]-6-methyl-morpholin-4-yl]pyrazolo[1,5-a]pyridine-7-carbonitrile] | 51 |
| C[C@@H]1CN(c2ccc(C#N)n3ncc(F)c23)C[C@H](CN2CC3(C2)OCc2cc(N4CC(C)(N)C4)ccc23)O1 [Example 1, 4-[(2S,6R)-2-[[6-(3-amino-3-methyl-azetidin-1-yl)spiro[1H-isobenzofuran-3,3′-azetidine]-1′-yl]methyl]-6-methyl-morpholin-4-yl]-3-fluoro-pyrazolo[1,5-a]pyridine-7-carbonitrile] | 82 |
| [2H]c1ccc2c(N3C[C@H](CN4CC5(C4)OCc4cc(N6C[C@@H](N)[C@H](OC)C6)cnc45)O[C@H](C)C3)ccc(C#N)c2n1 [Example 31, 5-[(2S,6R)-2-[[3-[(3R,4R)-3-amino-4-methoxy-pyrrolidin-1-yl]spiro[5H-furo[3,4-b]pyridine-7,3′-azetidine]-1′-yl]methyl]-6-methyl-morpholin-4-yl]-2-deuterio-quinoline-8-carbonitrile] | 30 |
| [2H]c1ccc2c(N3C[C@H](CN4CC5(C4)OCc4cc(N6C[C@@H](N)[C@H](OC)C6)ccc45)O[C@H](C)C3)ccc(C#N)c2n1 [Example 16, 5-[(2S,6R)-2-[[6-[(3R,4R)-3-amino-4-methoxy-pyrrolidin-1-yl]spiro[1H-isobenzofuran-3,3′-azetidine]-1′-yl]methyl]-6-methyl-morpholin-4-yl]-2-deuterio-quinoline-8-carbonitrile] | 13 |
